Assay results taken from PubChem BioAssay (NCI).
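96-well plates; 48 h exposure; 5 concentrations. Endpoints by linear interpolation between flanking doses. Not reached: highest tested concentration assigned. Here, GI50 denotes the concentration required for 50% inhibition of growth. TGI: concentration producing complete growth inhibition.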

What was measured:
Assay in all cases: growth of human tumour cells (NCI), 48 h
HOP-62 NSCLC = tested on: HOP-62 NSCLC
NCI/ADR-RES ovarian = tested on: NCI/ADR-RES ovarian
HL-60(TB) leukemia = tested on: HL-60(TB) leukemia
UACC-62 melanoma = tested on: UACC-62 melanoma
SF-295 CNS = tested on: SF-295 CNS
SK-MEL-2 melanoma = tested on: SK-MEL-2 melanoma
RXF 393 renal = tested on: RXF 393 renal
HCT-116 colon = tested on: HCT-116 colon
LOX IMVI melanoma = tested on: LOX IMVI melanoma
SW-620 colon = tested on: SW-620 colon

| SMILES | GI50 (HOP-62 NSCLC) [µM] | TGI (HOP-62 NSCLC) [µM] | GI50 (NCI/ADR-RES ovarian) [µM] | TGI (NCI/ADR-RES ovarian) [µM] | GI50 (HL-60(TB) leukemia) [µM] | TGI (HL-60(TB) leukemia) [µM] | GI50 (UACC-62 melanoma) [µM] | TGI (UACC-62 melanoma) [µM] | GI50 (SF-295 CNS) [µM] | TGI (SF-295 CNS) [µM] | GI50 (SK-MEL-2 melanoma) [µM] | TGI (SK-MEL-2 melanoma) [µM] | GI50 (RXF 393 renal) [µM] | TGI (RXF 393 renal) [µM] | GI50 (HCT-116 colon) [µM] | TGI (HCT-116 colon) [µM] | GI50 (LOX IMVI melanoma) [µM] | TGI (LOX IMVI melanoma) [µM] | GI50 (SW-620 colon) [µM] | TGI (SW-620 colon) [µM] |
| --- | --- | --- | --- | --- | --- | --- | --- | --- | --- | --- | --- | --- | --- | --- | --- | --- | --- | --- | --- | --- |
| CC1(/C=C/c2ccc(-c3ccccc3)cc2)CCn2cnc3ncnc(c32)N1O (stereo not given) | 0.366 | 16.4 | 0.348 | 28.7 | 0.318 | 1.81 | 0.356 | 2.27 | 0.419 | 17.1 | 1.42 | 41.2 | 0.88 | 40.3 | 0.358 | 18.6 | 0.302 | 21.6 | 0.529 | 24.6 |
| CN(N=O)N1C(=O)SCC(c2ccccc2)(c2ccccc2)C1=O |  | > 100 |  | > 100 |  | > 100 |  | > 100 |  | > 100 |  | 54.5 |  | 59.2 |  | > 100 |  | > 100 |  | > 100 |
| c1ccc(OCC[P+](c2ccccc2)(c2ccccc2)c2ccccc2)cc1 | 1.41 | 11.1 | > 66.1 | > 100 | 0.275 | 1.45 | 0.678 | 8.99 | 2.05 | 15.7 | 1.06 | 10.8 | 4.19 | 16 | 0.491 | 11.3 | 0.926 | 9.68 | 1.76 | 11.8 |
| O=C(Nc1n[nH]c2cc(-c3ccc(F)cc3)ccc12)C1CC1 | 8.37 | > 23.7 | 5.27 | 22.6 | 6.69 | 22.3 | 12.6 | > 25 | 9.07 | 24.6 | 7.16 | > 21.9 | 5.73 | > 22.6 | 8.89 | > 25 | 10.7 | > 25 | 7.69 | > 25 |
| COC1C[C@H](O[C@@H]2C[C@H](O[C@@H]3C[C@H](O[C@@H]4C(=O)c5c(cc6cc(O[C@H]7C[C@@H](O[C@H]8C[C@@H](O)[C@H](O)C(C)O8)[C@H](O)C(C)O7)c(C)c(O)c6c5O)C[C@H]4C(OC)C(=O)[C@@H](O)[C@@H](C)O)OC(C)[C@H]3O)OC(C)[C@@H]2O)OC(C)[C@@H]1O (stereo not given in full) | 0.0752 | > 32.5 | > 32.5 | > 32.5 | 0.362 | > 32.5 | 0.0434 | 0.134 | 0.104 | > 32.5 | 0.068 | 0.165 | 0.094 | 0.525 | 0.0968 | > 32.5 | 0.0545 | 0.168 | 0.127 | > 32.5 |
| Clc1ccc(Nc2nnc(COc3ccccc3)c3ccccc23)cc1 | 2.51 | 7.74 | 2.62 | 16.6 | 3.56 | 11.9 | 1.24 | 5.69 | 1.65 | 6.7 | 0.971 | 5.13 | 1.01 | 4.98 | 1.07 | 4.83 | 1.29 | 4.85 | 2.86 | 7.79 |
